Measurements taken from ChEMBL document CHEMBL1139335, “Enaminones 8: CoMFA and CoMSIA studies on some anticonvulsant enaminones” (Bioorg Med Chem, 2009).
Activity calls are given as the source filed them. No cut-off for these calls is given here.

System: Mus musculus
Experiment: Anticonvulsant activity in mouse assessed as inhibition of pentylenetetrazole-induced seizure at 100 mg/kg
Format: functional, organism-based
Design: dose 100 mg/kg

SMILES	Activity
N#Cc1ccc(C(=O)NC2=CC(=O)CCC2)cc1	Active
CCOC(=O)C1C(=O)C=C(Nc2ccc(C#N)cc2)CC1C (stereo not drawn)	Active
COc1ccc(C(=O)NC2=CC(=O)CC(C)C2)cc1 (stereo not drawn)	Active
NC1=CC(=O)CCC1	Active
COC(=O)C1C(=O)C=C(Nc2ccc(C(F)(F)F)cc2)CC1(C)C (stereo not drawn)	Active
CCOC(=O)C1C(=O)C=C(NC(=O)c2ccc(C)cc2)CC1C (stereo not drawn)	Active
CC1(C)CC(=O)C=C(NC(=O)c2ccc(C#N)cc2)C1	Active
CCOC(=O)C1C(=O)C=C(Nc2ccc(Cl)cc2)CC1C (stereo not drawn)	Active

System: Mus musculus
Experiment: Anticonvulsant activity in mouse assessed as inhibition of pentylenetetrazole-induced seizure at 100 to 300 mg/kg
Format: functional, organism-based

SMILES	Activity
COC(=O)C1C(=O)C=C(Nc2ccc(Cl)c(Cl)c2)CC1C (stereo not drawn)	Active
CC1CC(=O)C=C(Nc2ccc(F)cc2)C1 (stereo not drawn)	Active
CCOC(=O)C1C(=O)C=C(Nc2ccc(Cl)cn2)CC1C (stereo not drawn)	Active
CCOC(=O)C1C(=O)C=C(Nc2ccc(F)cc2)CC1C (stereo not drawn)	Active
CC(=O)/C=C(\C)Nc1ccc(I)cc1	Active
CC(=O)/C=C(\C)Nc1ccc(Cl)cc1	Active
CC1CC(=O)C=C(Nc2cccc(Cl)c2)C1 (stereo not drawn)	Active
COC(=O)C1C(=O)C=C(Nc2ccc(Cl)cc2)CC1(C)C (stereo not drawn)	Active
CCOC(=O)C1C(=O)C2=C(CC1C)Nc1ccc(Cl)cc1S2 (stereo not drawn)	Active
CCOC(=O)C1CCC(Nc2cccc(OC(F)(F)F)c2)=CC1=O (stereo not drawn)	Active
COC(=O)C1C(=O)C=C(Nc2ccc(Br)cc2)CC1C (stereo not drawn)	Active
CCc1ccc(N/C(C)=C/C(C)=O)cc1	Active
CCOC(=O)C1C(=O)C=C(Nc2cc(C)ccc2OC)CC1C (stereo not drawn)	Active
CC1CC(=O)C=C(Nc2ccc(Cl)cc2)C1 (stereo not drawn)	Active
COC(=O)C1C(=O)C=C(Nc2ccc(C(F)(F)F)cc2)CC1C (stereo not drawn)	Active
COC(=O)C1C(=O)C=C(Nc2ccccc2F)CC1C (stereo not drawn)	Active
CC1CC(=O)C=C(Nc2cccc(Br)c2)C1 (stereo not drawn)	Active
COC(=O)C1C(=O)C=C(Nc2ccc(OC(F)(F)F)cc2)CC1C (stereo not drawn)	Active
COC(=O)C1C(=O)C=C(Nc2ccc(F)cc2)CC1C (stereo not drawn)	Active
CCOC(=O)C1C(=O)C=C(Nc2ccc(Cl)c(Cl)c2)CC1C (stereo not drawn)	Active
COC(=O)C1C(=O)C=C(Nc2ccc(Cl)cn2)CC1C (stereo not drawn)	Active
CC(=O)/C=C(\C)Nc1ccc(Br)cc1	Active
COc1ccc(N/C(C)=C/C(C)=O)cc1	Active
CCOC(=O)C1C(=O)C=C(Nc2ccc(Cl)cc2Cl)CC1C (stereo not drawn)	Active
CC1CC(=O)C=C(Nc2ccc(OC(F)(F)F)cc2)C1 (stereo not drawn)	Active
